The source of these data is patent US11186577B2, “Vasopressin receptor antagonists and products and methods related thereto” (BlackThorn Therapeutics, Inc., priority 2017, dated 2021).

Read-outs that look alike come from different tables or passages of the source.

What is called IC50 is the concentration that inhibits the measured activity by half.

Assay [1] deals with human Arginine Vasopressin Receptor 1a (AVPR1a) (Homo sapiens (Human), UniProt P37288). Kind of assay: Vasopressin V1A receptor antagonist assay (AVP-evoked calcium, FLIPR, CHO-AVPR1a cells). The assay is classed as cell-based. The procedure: The purpose of this assay was to determine the inhibitory effect of synthesized compounds on the Vasopressin V1a receptor. The assay as performed in Chinese Hamster Ovary (CHO) cells expressing the human Arginine Vasopressin Receptor 1a (AVPR1a). Arginine Vasopressin (AVP) evokes an increase in intracellular calcium in CHO-AVPR1a cells which is measured in a fluorescence assay on the FLIPR^TETRA using calcium sensitive dyes. Test compounds were assessed for their ability to affect the magnitude of the response to AVP, with antagonists showing a concentration-dependent reduction in the AVP-mediated fluorescence. Compounds were tested in duplicate in a 10-point, 1:3 dilution series starting at a nominal concentration of 3 μM in the assay.
CHO-AVPR1a cells were maintained in routine culture in T175 Flasks at 37° C., 5% CO2. The growth medium consists of Ham's F12 media supplemented with 10% v/v fetal bovine serum, 1× non-essential amino acids, and 0.4 mg/ml Geneticin G418.
On day one, cells were harvested from T175 flasks when they are 80-90% confluent by first washing the cell monolayer with PBS and then dissociated using trypsin 0.05%/EDTA (3 mL for a T175 Flask). The flasks were incubated at room temperature until the cells detached. To the cell suspension, 10 ml of growth media was added and the cell density determined using the Vi-Cell automated cell counter. The cells were spun at 1000 rpm for 3 minutes, then the supernatant was carefully removed and discarded. The cell pellet was re-suspended at 6.0e^5 cells/ml in growth media. 25 μL of cells in growth media was dispensed into each well (15,000 cells per well) of a poly-D-lysine coated black, clear bottomed, 384-well plate. The plates were incubated at 37° C., 5% CO2 overnight.
At the start of each assay day, the potency of AVP was assessed and an EC80 concentration determined for subsequent compound profiling. Assays were performed using a two-step addition protocol on the FLIPR^TETRA; first addition of 5 μl of control or test compound at 10× final in assay buffer with 15 min incubation at 37° C., 5% CO2 followed by 10 μl of AVP at 6× final concentration in assay buffer. […] The assay buffer consisted of HBSS (+Ca/+Mg) supplemented with 20 mM HEPES, and for the preparation of the AVP agonist only, 0.1% w/v bovine serum albumin. The assay was initiated by the removal of growth media from the cells and replacement with 45 μl of Calcium-6 dye (Molecular Devices) prepared at 1× in assay buffer. Cells are loaded with dye for 60-90 min at 37° C., 5% CO2 before initiation of the FLIPR^TETRA protocol. […] At the end of the incubation period, 10 μl of AVP in assay buffer containing 0.1% BSA was added at the previously determined EC80 concentration.

The target in assay [2] is human Oxytocin Receptor (hOTR) (Homo sapiens (Human), UniProt P30559). Kind of assay: Oxytocin receptor antagonist assay (oxytocin-evoked calcium, FLIPR, CHEM-1-hOTR cells). The assay is classed as cell-based. To be noted: read-out: OT IC50. The protocol: This assay was performed in CHEM-1 cells expressing the human Oxytocin Receptor (hOTR) to determine the inhibitory effect of the compounds of the invention on the human Oxytocin receptor. Oxytocin evokes an increase in intracellular calcium in CHEM-1-hOTR cells which is measured in a fluorescence assay on the FLIPR^TETRA using calcium sensitive dyes. Test compounds were assessed for their ability to affect the magnitude of the response to oxytocin, with antagonists showing a concentration-dependent reduction in the oxytocin-mediated fluorescence.
CHEM-1-hOTR ready was used to assay frozen cells (Eurofins #HTS090RTA) which are supplied with a proprietary Media Component.
Cells were thawed in a 37° C. water bath and diluted with the supplied Media Component to a final volume of 10 ml. The cell suspension was centrifuged at 1000 rpm for 3 min at room temperature and the supernatant was discarded. The cell pellet was resuspended in Media Component (10.5 ml) and the cells (25 μL) were dispensed into a poly-D-lysine coated black, clear bottomed, 384-well plate. The plates were incubated overnight at 37° C., 5% CO2.
At the start of each assay day the potency of oxytocin was assessed and an EC80 concentration was determined for subsequent compound profiling. Assays were performed using a two-step addition protocol on the FLIPR^TETRA; first addition of 5 μl of control or test compound at 10× final in assay buffer with 15 min incubation at 37° C., 5% CO2 followed by 10 μl of oxytocin at 6× final concentration in assay buffer. Changes in fluorescence were monitored for 3 min after both additions on the FLIPR^TETRA using 470-495 nm excitation and 515-575 nm emission wavelengths. The assay buffer consisted of HBSS (+Ca/+Mg) supplemented with 20 mM HEPES, and for the preparation of the oxytocin agonist only, 0.1% w/v bovine serum albumin. The assay was initiated by the removal of growth media from the cells and replaced with 45 μl of Calcium-6 dye (Molecular Devices) prepared at 1× in assay buffer. Cells were loaded with dye for 60-90 min at 37° C., 5% CO2 before initiation of the FLIPR^TETRA protocol. […] For compound profiling, test compounds were first serially diluted in DMSO (10-point curve, 1:3 dilutions) then diluted 33.3-fold in assay buffer prior to addition to the dye loaded cells on the FLIPR^TETRA. At the end of the incubation period 10 μl of oxytocin in assay buffer containing 0.1% BSA was added at the previously determined EC80 concentration.
In-plate controls for the assay include a L-368,899 concentration-response curve as the reference OTR antagonist and an oxytocin concentration-response curve to confirm the reproducibility of the EC80 used for the compound challenge.

human Arginine Vasopressin Receptor 1a (AVPR1a), sequence (P37288 whole entry): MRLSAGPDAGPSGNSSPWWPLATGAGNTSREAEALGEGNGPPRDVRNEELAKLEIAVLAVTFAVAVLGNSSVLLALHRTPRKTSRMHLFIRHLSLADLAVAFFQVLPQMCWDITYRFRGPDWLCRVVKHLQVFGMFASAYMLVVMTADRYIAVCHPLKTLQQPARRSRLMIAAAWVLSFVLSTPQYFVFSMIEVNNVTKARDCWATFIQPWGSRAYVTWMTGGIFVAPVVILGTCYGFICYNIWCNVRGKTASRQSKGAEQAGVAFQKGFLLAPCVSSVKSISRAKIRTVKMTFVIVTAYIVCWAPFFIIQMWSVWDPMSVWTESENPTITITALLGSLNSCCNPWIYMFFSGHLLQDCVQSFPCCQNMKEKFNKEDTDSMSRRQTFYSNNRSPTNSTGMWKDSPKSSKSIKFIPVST
human Oxytocin Receptor (hOTR), sequence (P30559 whole entry): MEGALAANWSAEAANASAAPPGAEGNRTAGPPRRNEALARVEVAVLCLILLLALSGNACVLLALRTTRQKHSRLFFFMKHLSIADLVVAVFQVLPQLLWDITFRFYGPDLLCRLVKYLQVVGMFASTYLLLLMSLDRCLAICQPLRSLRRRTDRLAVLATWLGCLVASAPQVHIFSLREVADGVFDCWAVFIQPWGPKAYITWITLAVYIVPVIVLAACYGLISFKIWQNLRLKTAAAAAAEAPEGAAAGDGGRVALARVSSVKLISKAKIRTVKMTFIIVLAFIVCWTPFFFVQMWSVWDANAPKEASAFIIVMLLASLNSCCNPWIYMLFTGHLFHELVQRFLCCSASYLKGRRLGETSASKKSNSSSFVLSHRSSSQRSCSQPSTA

Consider `CC1c2nnc(C3CC4(C3)CN(c3ccc(F)cn3)C4)n2-c2ccc(Cl)cc2CN1C(=O)OC(CF)CF` (single isomer, unassigned) [Cpd 203B], for which the IC50 in assay [1] (read-out: V1a IC50) and in assay [2] was > 1000 nM each time. With `CN1Cc2cc(Cl)ccc2-n2c(nnc2C2CC3(C2)CN(c2cccnc2)C3)C1` [compound 5], the 50% inhibitory concentration (IC50) was 100 to 500 nM in assay [1] and > 1000 nM in assay [2]. Regarding `Cc1cccc(N2CC3(CC(c4nnc5n4-c4ccc(Cl)cc4CN(C)C5)C3)C2)n1` [compound 6], the IC50 in assay [1] (read-out: V1a IC50) is < 100 nM; in assay [2], > 1000 nM. As to `COc1cccc(N2CC3(CC(c4nnc5n4-c4ccc(Cl)cc4CN(C)C5)C3)C2)n1` [compound 7], the IC50 in assay [1] was 100 to 500 nM; in assay [2] it was > 1000 nM. As for `CN1Cc2cc(Cl)ccc2-n2c(nnc2C2CC3(C2)CN(C(=O)OC(C)(C)C)C3)C1` [compound 9], the IC50 is 100 to 500 nM in assay [1] and 500 to 1000 nM in assay [2]. In the same order, the values of `CN1Cc2cc(Cl)ccc2-n2c(nnc2C2CC3(C2)CN(c2cncc(F)c2)C3)C1` [compound 10] are 100 to 500 nM and > 1000 nM. For the compound `COc1ccc(N2CC3(CC(c4nnc5n4-c4ccc(Cl)cc4CN(C)C5)C3)C2)nc1` [compound 11], the half-maximal inhibitory concentration (IC50) in assay [1] is 500 to 1000 nM; in assay [2], > 1000 nM.

With `Cc1ccc(N2CC3(CC(c4nnc5n4-c4ccc(Cl)cc4CN(C)C5)C3)C2)nc1` [compound 12], the IC50 in assay [1] is 100 to 500 nM; in assay [2] it was > 1000 nM. In the same order, the values of `CN1Cc2cc(Cl)ccc2-n2c(nnc2C2CC3(C2)CN(c2cccnn2)C3)C1` [compound 13] are 100 to 500 nM and > 1000 nM. Regarding `CN1Cc2cc(Cl)ccc2-n2c(nnc2C2CC3(C2)CN(C(=O)C2COC2)C3)C1` [compound 14], the IC50 in assay [1] (read-out: V1a IC50) and in assay [2] was > 1000 nM throughout. `CC(=O)N1CC2(CC(c3nnc4n3-c3ccc(Cl)cc3CN(C)C4)C2)C1` [compound 15]: the IC50 in assay [1] (read-out: V1a IC50) and in assay [2] was > 1000 nM each time. On to `CCC(=O)N1Cc2cc(Cl)ccc2-n2c(nnc2C2CC3(C2)CN(C(=O)C2CCC2)C3)C1` [compound 37], for which the half-inhibitory concentration (IC50) is < 100 nM in assay [1] (read-out: V1a IC50) and > 1000 nM in assay [2]. As to `CCOC(=O)N1Cc2cc(Cl)ccc2-n2c(nnc2C2CC3(C2)CN(c2ccccn2)C3)C1` [compound 68], the half-inhibitory concentration (IC50) is < 100 nM in assay [1] (read-out: V1a IC50) and > 1000 nM in assay [2].

As for `CCC(=O)N1Cc2cc(Cl)ccc2-n2c(nnc2C2CC3(C2)CN(c2cccnn2)C3)C1` [compound 108], the 50% inhibitory concentration (IC50) is < 100 nM in assay [1] (read-out: V1a IC50) and > 1000 nM in assay [2]. For `CCC(=O)N1Cc2cc(Cl)ccc2-n2c(nnc2C2CC3(C2)CN(c2cccc(C)n2)C3)C1` [compound 109], the IC50 is < 100 nM in assay [1] (read-out: V1a IC50) and > 1000 nM in assay [2].

`CCC(=O)N1Cc2cc(Cl)ccc2-n2c(nnc2C2CC3(C2)CN(c2ccc(F)nn2)C3)C1` [compound 112]: the 50% inhibitory concentration (IC50) in assay [1] (read-out: V1a IC50) was < 100 nM; in assay [2], > 1000 nM. Regarding `O=C(C(F)F)N1Cc2cc(Cl)ccc2-n2c(nnc2C2CC3(C2)CN(C(=O)C2CC2)C3)C1` [compound 138], the results for the 50% inhibitory concentration (IC50) in assay [1] (read-out: V1a IC50) and in assay [2] were < 100 nM and > 1000 nM, respectively.

`CCC(=O)N1Cc2cc(Cl)ccc2-n2c(nnc2C2CC3(C2)CN(c2ncc(F)cn2)C3)C1` [compound 157]: the IC50 is < 100 nM in assay [1] (read-out: V1a IC50) and > 1000 nM in assay [2]. For `COC(=O)N1Cc2cc(Cl)ccc2-n2c(C3CC4(C3)CN(c3ncncc3F)C4)nnc2C1C` (centres unmarked) [compound 183], the IC50 in assay [1] and in assay [2] was 100 to 500 nM in each case. Consider `COC(=O)N1Cc2cc(Cl)ccc2-n2c(C3CC4(C3)CN(c3ncncc3F)C4)nnc2C1C` (centres unmarked) [compound 188], for which the values for the IC50 in assay [1] (read-out: V1a IC50) and in assay [2] were < 100 nM and 100 to 500 nM, respectively. For `CCOC(=O)N1Cc2cc(Cl)ccc2-n2c(C3CC4(C3)CN(c3nccc(C(F)F)n3)C4)nnc2C1C` (centres unmarked) [compound 189], the half-inhibitory concentration (IC50) in assay [1] (read-out: V1a IC50) is < 100 nM; in assay [2], > 1000 nM. In the case of `CC1c2nnc(C3CC4(C3)CN(c3ccc(F)cn3)C4)n2-c2ccc(Cl)cc2CN1C(=O)OC1CC1` (centres unmarked) [compound 191, cyclopropyl 8-chloro-1-(2-(5-fluoropyridin-2-yl)-2-azaspiro[3.3]heptan-6-yl)-4-methyl-4H-benzo[f][1,2,4]triazolo[4,3-a][1,4]diazepine-5(6H)-carboxylate], the values for the IC50 in assay [1] (read-out: V1a IC50) and in assay [2] were < 100 nM and 500 to 1000 nM, respectively. As for `Clc1ccc2c(c1)CN(C1CC1)Cc1nnc(C3CC4(C3)CN(c3noc(C5CC5)n3)C4)n1-2` [compound 269], in assay [1], the IC50 is 500 to 1000 nM. Regarding `Cc1nccc(N2CC3(CC(c4nnc5n4-c4ccc(Cl)cc4CN(C4CC4)C5)C3)C2)n1` [compound 270], the IC50 in assay [1] is 100 to 500 nM. For `FC(F)(F)Oc1cccnc1N1CC2(CC(c3nnc4n3-c3ccc(Cl)cc3CN(C3CC3)C4)C2)C1` [compound 272], the IC50 in assay [1] (read-out: V1a IC50) was < 100 nM. For the compound `Cc1ccc(F)c(N2CC3(CC(c4nnc5n4-c4ccc(Cl)cc4CN(C4CC4)C5)C3)C2)n1` [compound 273], the IC50 in assay [1] (read-out: V1a IC50) was < 100 nM.

Take `COc1ccc(C)nc1N1CC2(CC(c3nnc4n3-c3ccc(Cl)cc3CN(C3CC3)C4)C2)C1` [compound 274]: in assay [1] (read-out: V1a IC50), the half-maximal inhibitory concentration (IC50) is < 100 nM. For `Cc1cc(C)nc(N2CC3(CC(c4nnc5n4-c4ccc(Cl)cc4CN(C4CC4)C5)C3)C2)c1` [compound 275], the IC50 in assay [1] (read-out: V1a IC50) is < 100 nM.
